Target: T1, FLT3-D835Y (Homo sapiens, UniProt P36888, D835Y)
T1 construct: purchased Invitrogen PV3967
T1 sequence (P36888 27-993 D835Y): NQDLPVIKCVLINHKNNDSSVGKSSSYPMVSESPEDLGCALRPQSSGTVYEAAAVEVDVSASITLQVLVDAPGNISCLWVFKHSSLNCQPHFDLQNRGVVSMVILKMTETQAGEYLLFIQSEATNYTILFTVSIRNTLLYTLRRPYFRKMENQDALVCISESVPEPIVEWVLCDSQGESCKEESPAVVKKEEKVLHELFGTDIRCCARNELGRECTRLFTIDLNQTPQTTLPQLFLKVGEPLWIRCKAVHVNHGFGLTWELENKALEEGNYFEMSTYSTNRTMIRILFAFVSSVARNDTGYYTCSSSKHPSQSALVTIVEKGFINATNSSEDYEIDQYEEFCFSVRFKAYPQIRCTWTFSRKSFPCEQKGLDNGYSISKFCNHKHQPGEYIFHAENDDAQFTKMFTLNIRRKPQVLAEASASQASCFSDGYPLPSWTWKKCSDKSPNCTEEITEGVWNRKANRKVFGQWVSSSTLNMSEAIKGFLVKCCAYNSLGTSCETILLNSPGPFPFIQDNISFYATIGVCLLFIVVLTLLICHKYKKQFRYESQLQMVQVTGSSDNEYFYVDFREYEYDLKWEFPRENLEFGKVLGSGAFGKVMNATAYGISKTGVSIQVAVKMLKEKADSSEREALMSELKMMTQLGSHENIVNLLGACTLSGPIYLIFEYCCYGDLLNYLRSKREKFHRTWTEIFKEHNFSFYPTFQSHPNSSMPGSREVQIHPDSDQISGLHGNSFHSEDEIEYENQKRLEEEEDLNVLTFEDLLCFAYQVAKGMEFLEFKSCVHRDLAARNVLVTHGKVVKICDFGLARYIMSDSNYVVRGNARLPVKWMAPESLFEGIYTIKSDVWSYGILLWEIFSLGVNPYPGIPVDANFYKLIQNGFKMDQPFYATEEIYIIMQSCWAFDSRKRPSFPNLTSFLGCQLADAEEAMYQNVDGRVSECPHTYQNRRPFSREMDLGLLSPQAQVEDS
Assay: AlphaScreen kinase assay with recombinant enzyme, FLT3-D835Y
Type: biochemical
Details: 8pt, GMean
In short: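 AlphaScreen, biotinylated poly(Glu4-Tyr) 30 nM final; PY20 anti-pTyr acceptor and streptavidin donor beads 10 μg/mL; IC50 final conc. 10 μM (FLT3-D835Y, FLT3-ITD) / 100 μM (c-KIT); detection incubations 20 + 60 min RT; 580 nm emission.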

Structure (SMILES) | IC50 [µM]
CC(C)(C#N)NC(=O)c1cccc(-c2cnc3[nH]c(-c4cccc(N5CCCS5(=O)=O)c4)cc3c2)n1 [Compound P-0199, N-(1-cyano-1-methyl-ethyl)-6-[2-[3-(1,1-dioxo-1,2-thiazolidin-2-yl)phenyl]-1H-pyrrolo[2,3-b]pyridin-5-yl]pyridine-2-carboxamide] | 0.0001 to 10
CNC1CN(C(=O)c2cccc(-c3cnc4[nH]c(-c5ccccc5)cc4c3)n2)C1 [Compound P-0052, [3-(methylamino)azetidin-1-yl]-[6-(2-phenyl-1H-pyrrolo[2,3-b]pyridin-5-yl)-2-pyridyl]methanone] | 0.0001 to 10
NC1CCN(C(=O)c2n[nH]c3ccc(-c4cnc5[nH]c(-c6ccccc6)cc5c4)cc23)CC1 [Compound P-0012, (4-amino-1-piperidyl)-[5-(2-phenyl-1H-pyrrolo[2,3-b]pyridin-5-yl)-1H-indazol-3-yl]methanone] | 0.0001 to 10
c1ccc(-c2cc3cc(-c4cccc(OC5CCNCC5)n4)cnc3[nH]2)cc1 [Compound P-0050, 2-phenyl-5-[6-(4-piperidyloxy)-2-pyridyl]-1H-pyrrolo[2,3-b]pyridine] | 0.0001 to 10
COC1CN(C(=O)c2cccc(-c3cnc4[nH]c(-c5ccccc5)cc4c3)n2)C1 [Compound P-0091, (3-methoxyazetidin-1-yl)-[6-(2-phenyl-1H-pyrrolo[2,3-b]pyridin-5-yl)-2-pyridyl]methanone] | 0.0001 to 10
O=S(=O)(NC1CCNC1)c1cccc(-c2cnc3[nH]c(-c4ccccc4)cc3c2)n1 (stereo not shown) [Compound P-0072, 6-(2-phenyl-1H-pyrrolo[2,3-b]pyridin-5-yl)-N-pyrrolidin-3-yl-pyridine-2-sulfonamide] | 0.0001 to 10
CN1CCC(NC(=O)c2n[nH]c3ccc(-c4cnc5[nH]c(-c6ccccc6)cc5c4)cc23)CC1 [Compound P-0022, N-(1-methyl-4-piperidyl)-5-(2-phenyl-1H-pyrrolo[2,3-b]pyridin-5-yl)-1H-indazole-3-carboxamide] | 0.0001 to 10
CC(C)(C#N)NC(=O)c1cccc(-c2cnc3[nH]c(-c4cnc(C(C)(C)O)nc4)cc3c2)n1 [Compound P-0211, N-(1-cyano-1-methyl-ethyl)-6-[2-[2-(1-hydroxy-1-methyl-ethyl)pyrimidin-5-yl]-1H-pyrrolo[2,3-b]pyridin-5-yl]pyridine-2-carboxamide] | 0.0001 to 10
CC1(C#N)CCN(C(=O)c2cccc(-c3cnc4[nH]c(-c5ccccc5)cc4c3)n2)CC1 [Compound P-0094, 4-methyl-1-[6-(2-phenyl-1H-pyrrolo[2,3-b]pyridin-5-yl)pyridine-2-carbonyl]piperidine-4-carbonitrile] | 0.0001 to 10
CC(C)(C#N)NC(=O)c1cccc(-c2cnc3[nH]c(-c4cnn(C(=O)C5CC5)c4)cc3c2)n1 [Compound P-0184, N-(1-cyano-1-methyl-ethyl)-6-[2-[1-(cyclopropanecarbonyl)pyrazol-4-yl]-1H-pyrrolo[2,3-b]pyridin-5-yl]pyridine-2-carboxamide] | 0.0001 to 10
CC(C)(C)OC(=O)NC1CCN(C(=O)c2cccc(-c3cnc4[nH]c(-c5ccccc5)cc4c3)n2)CC1 [Compound P-0017, tert-butyl N-[1-[6-(2-phenyl-1H-pyrrolo[2,3-b]pyridin-5-yl)pyridine-2-carbonyl]-4-piperidyl]carbamate] | 0.0001 to 10
CN(C)CC#Cc1cc2cc(-c3cccc(S(=O)(=O)NC4CC4)c3)cnc2[nH]1 [Compound P-0009, N-cyclopropyl-3-[2-[3-(dimethylamino)prop-1-ynyl]-1H-pyrrolo[2,3-b]pyridin-5-yl]benzenesulfonamide] | 0.0001 to 10
CNC1CCN(C(=O)c2n[nH]c3ccc(-c4cnc5[nH]c(-c6ccccc6)cc5c4)cc23)C1 (stereo not shown) [Compound P-0028, [3-(methylamino)pyrrolidin-1-yl]-[5-(2-phenyl-1H-pyrrolo[2,3-b]pyridin-5-yl)-1H-indazol-3-yl]methanone] | 0.0001 to 10
COc1ncc(-c2cc3cc(-c4cccc(C(=O)NC(C)(C)C#N)n4)cnc3[nH]2)cn1 [Compound P-0196, N-(1-cyano-1-methyl-ethyl)-6-[2-(2-methoxypyrimidin-5-yl)-1H-pyrrolo[2,3-b]pyridin-5-yl]pyridine-2-carboxamide] | 0.0001 to 10
O=C(c1cccc(-c2cnc3[nH]c(-c4ccccc4)cc3c2)n1)N1CCC(CO)CC1 [Compound P-0023, [4-(hydroxymethyl)-1-piperidyl]-[6-(2-phenyl-1H-pyrrolo[2,3-b]pyridin-5-yl)-2-pyridyl]methanone] | 0.0001 to 10
CNC1CCN(C(=O)c2cccc(-c3cnc4[nH]c(-c5ccc(F)cc5)cc4c3)n2)C1 (stereo not shown) [Compound P-0055, [6-[2-(4-fluorophenyl)-1H-pyrrolo[2,3-b]pyridin-5-yl]-2-pyridyl]-[3-(methylamino)pyrrolidin-1-yl]methanone] | 0.0001 to 10
CNC1CCN(C(=O)c2cccc(-c3cnc4[nH]c(-c5cnn(CC(F)(F)F)c5)cc4c3)n2)C1 (stereo not shown) [Compound P-0061, [3-(methylamino)pyrrolidin-1-yl]-[6-[2-[1-(2,2,2-trifluoroethyl)pyrazol-4-yl]-1H-pyrrolo[2,3-b]pyridin-5-yl]-2-pyridyl]methanone] | 0.0001 to 10
CC(C)(C#N)NC(=O)c1cccc(-c2cnc3[nH]c(-c4cnn(C(F)F)c4)c(Cl)c3c2)n1 [Compound P-0185, 6-[3-chloro-2-[1-(difluoromethyl)pyrazol-4-yl]-1H-pyrrolo[2,3-b]pyridin-5-yl]-N-(1-cyano-1-methyl-ethyl)pyridine-2-carboxamide] | 0.0001 to 10
CN1CCC(NC(=O)c2cccc(-c3cnc4[nH]c(-c5ccccc5)cc4c3)n2)C1 (stereo not shown) [Compound P-0064, N-(1-methylpyrrolidin-3-yl)-6-(2-phenyl-1H-pyrrolo[2,3-b]pyridin-5-yl)pyridine-2-carboxamide] | 0.0001 to 10
CC(C)(C#N)NC(=O)c1cccc(-c2cnc3[nH]c(-c4cnc(N5CCCC5)nc4)cc3c2)n1 [Compound P-0202, N-(1-cyano-1-methyl-ethyl)-6-[2-(2-pyrrolidin-1-ylpyrimidin-5-yl)-1H-pyrrolo[2,3-b]pyridin-5-yl]pyridine-2-carboxamide] | 0.0001 to 10
CN(C)S(=O)(=O)Nc1cccc(-c2cnc3[nH]c(-c4ccccc4)cc3c2)c1 [Compound P-0007, 5-[3-(dimethylsulfamoylamino)phenyl]-2-phenyl-1H-pyrrolo[2,3-b]pyridine] | 0.0001 to 10
CCOc1ncc(-c2cc3cc(-c4cccc(C(=O)NC(C)(C)C#N)n4)cnc3[nH]2)cn1 [Compound P-0203, N-(1-cyano-1-methyl-ethyl)-6-[2-(2-ethoxypyrimidin-5-yl)-1H-pyrrolo[2,3-b]pyridin-5-yl]pyridine-2-carboxamide] | 0.0001 to 10
CC1CCN(C(=O)c2n[nH]c3ccc(-c4cnc5[nH]c(-c6ccccc6)cc5c4)cc23)CC1 [Compound P-0027, (4-methyl-1-piperidyl)-[5-(2-phenyl-1H-pyrrolo[2,3-b]pyridin-5-yl)-1H-indazol-3-yl]methanone] | 0.0001 to 10
CNCC1CCN(C(=O)c2cccc(-c3cnc4[nH]c(-c5ccccc5)cc4c3)n2)C1 (stereo not shown) [Compound P-0079, [3-(methylaminomethyl)pyrrolidin-1-yl]-[6-(2-phenyl-1H-pyrrolo[2,3-b]pyridin-5-yl)-2-pyridyl]methanone] | 0.0001 to 10
CNC1CCN(C(=O)c2cccc(-c3cnc4[nH]c(-c5ccccc5)cc4c3)n2)C1 (stereo not shown) [Compound P-0040, [3-(methylamino)pyrrolidin-1-yl]-[6-(2-phenyl-1H-pyrrolo[2,3-b]pyridin-5-yl)-2-pyridyl]methanone] | 0.0001 to 10
NCC1CCN(C(=O)c2cccc(-c3cnc4[nH]c(-c5ccccc5)cc4c3)n2)CC1 [Compound P-0026, [4-(aminomethyl)-1-piperidyl]-[6-(2-phenyl-1H-pyrrolo[2,3-b]pyridin-5-yl)-2-pyridyl]methanone] | 0.0001 to 10
NC1(C(F)(F)F)CCN(C(=O)c2cccc(-c3cnc4[nH]c(-c5ccccc5)cc4c3)n2)C1 (stereo not shown) [Compound P-0077, [3-amino-3-(trifluoromethyl)pyrrolidin-1-yl]-[6-(2-phenyl-1H-pyrrolo[2,3-b]pyridin-5-yl)-2-pyridyl]methanone] | 0.0001 to 10
CNC1CCN(C(=O)c2cccc(-c3cnc4[nH]c(-c5cccc(C#N)c5)cc4c3)n2)C1 (stereo not shown) [Compound P-0062, 3-[5-[6-[3-(methylamino)pyrrolidine-1-carbonyl]-2-pyridyl]-1H-pyrrolo[2,3-b]pyridin-2-yl]benzonitrile] | 0.0001 to 10

Source: patent publication US9938273B2 (Plexxikon Inc., priority 2015, dated 2018)
